Data from paper PMC6332024, “Molecular Cloning and Characterization of a Xanthone Prenyltransferase from Hypericum calycinum Cell Cultures” (Molecules, 2015).

System: T1, HcPT
T1 construct: pFastBac1 baculovirus, microsomes of Sf9 insect cells
Assay: HPLC-DAD prenylation assay with Sf9 microsomes, Lineweaver-Burk
Format: biochemical, Hypericum calycinum
Conditions: 4 mM MgCl2, 0.5 mM dithiothreitol, 50 mM potassium phosphate pH 7.5, 40 °C, 30 min

| SMILES | Km (500 µM 1,3,6,7-tetrahydroxyxanthone constant) [µM] | Km (400 µM DMAPP constant) [µM] |
| --- | --- | --- |
| CC(C)=CCOP(=O)(O)OP(=O)(O)O [DMAPP, dimethylallyl diphosphate] | 87 ± 5 | – |
| O=c1c2cc(O)c(O)cc2oc2cc(O)cc(O)c12 [1,3,6,7-THX, 1,3,6,7-tetrahydroxyxanthone] | – | 211 ± 16 |
